Experimental data: USRE46698E1, “Use of cyclohexanol derivatives as antimicrobial active compounds” (MERCK PATENT GMBH, priority 2011, dated 2018)

Tests used:
[1] = Densities and viscosities, Ubbelohde viscometer, to estimate spreadability (Example 10); type: physicochemical; conditions: 25° C.
Procedure: Measurement of the Dynamic Viscosities in Order to Estimate the Spreadability at 25° C. After measurement of the densities and kinematic viscosities using an Ubbelohde viscometer, the following dynamic viscosities arise: Since spreadabilities and viscosities of cosmetic emollients correlate well, good spreadabilities can be concluded from the viscosities determined.

[2] = tested on: Candida albicans; assay: Antimicrobial action, microbe count (Example 6); type: cell-based; conditions: conc. 0.5%; for Δlog: t24 h
Procedure: (§1) For sample preparation, the substances being investigated are each dissolved or homogeneously dispersed in an amount of 1.0% in a water/ethanol mixture (12% of ethanol) (=sample). A bacteria suspension of S. epidermidis (ATCC 12228) having an optical density of 1.0 in CASO broth (Merck 1.05459) is diluted 1:10000 with CASO broth. 500 μl of sample are added to 500 μl of bacteria suspension, and the mixture is incubated at 35° C. for 24 h. After the incubation, the test batches are diluted to −6 in 10 unit steps, and 0.1 ml of each is plated-out on CASO agar (Merck 1.05458) and incubated at 35° C. for 24 h.
(§2) In order to determine the initial microbe count, 0.1 ml of the bacteria suspension used are plated-out on CASO agar (Merck 1.05458) and incubated at 35° C. for 24 h.
(§3) The colonies are subsequently counted, and the microbe count per ml is determined compared with the negative control (12% of ethanol in water).
(§4) The procedure corresponds to that described in Examples 4 and 5 using the microorganisms shown below. The concentrations indicated are the final use concentrations. In order to prepare the stock solution, double the final concentration were prepared in the solvent indicated. This was subsequently diluted 1:2 with the corresponding microbe suspension. In the case of Aspergillus brasiliensis, the microbe count determination was exceptionally carried out after 48 h.

[3] = Rancimate assay, antioxidative capacity (Example 1); conditions: 0.1% w/w in soya oil; 120° C.; input of air 201/h
Procedure: The antioxidative capacity of substances I-9, I-10 and I-2 is determined in the so-called Rancimate assay. The comparative substances used are 4-t-butyl-1-cyclohexanol and tocopherol. The positive standard employed is BHT. The measurement parameter is the time duration (induction time) of the increase in the conductivity of unstabilised soya oil on exposure to air at elevated temperature. The longer the induction time, the greater the stabilising or antioxidant action. The following boundary conditions were maintained: input of air 201/h; temperature 120° C. and sample concentrations of 0.1% w/w each in soya oil. For each test substance, a relative antioxidation-protection factor is determined, which corresponds to the ratio of the induction times with and without test substance: […]

[4] = tested on: Pseudomonas aeruginosa; assay: Antimicrobial action, microbe count (Example 6); type: cell-based; conditions: conc. 0.5%, H2O (12% of ethanol), count t0 6.8 × 10^4
Procedure: (§5) For sample preparation, the substances being investigated are each dissolved or homogeneously dispersed in an amount of 1.0% in a water/ethanol mixture (12% of ethanol) and subsequently diluted with bacteria suspension in the ratio 1 to 2. P. acnes (ATCC 6919) is pre-incubated under anaerobic conditions for 48 h at 35° C. on RMC agar (Merck 1.05410). A bacteria suspension having an optical density (OD) of about 1.5 is subsequently prepared in RMC broth (Merck 1.05411, double-concentrated). 150 μl of freshly prepared sample and 100 μl of paraffin are added to 150 μl of bacteria suspension per well. The optical density is determined over the course of time at 37° C. using a Bioscreen C™ analyser compared with the negative control (=vehicle without test substance). Compared with the negative control, reduced optical densities confirm growth-inhibiting substance actions.
as §1, §2, §3, §4

[5] = tested on: Propionibacterium acnes; assay: Antimicrobial action, microbe count (Example 6); type: cell-based; conditions: conc. 0.5%, H2O (12% of ethanol), count t0 2.0 × 10^4
Procedure: as §5, §1, §2, §3, §4

[6] = tested on: Echerichia coli; assay: Antimicrobial action, microbe count (Example 6); type: cell-based; conditions: conc. 0.5%, H2O (12% of ethanol), count t0 4.6 × 10^4
Procedure: as §5, §1, §2, §3, §4

[7] = tested on: Staphylococcus aureus; assay: Antimicrobial action, microbe count (Example 6); type: cell-based; conditions: conc. 0.5%, H2O (12% of ethanol), count t0 4.2 × 10^4
Procedure: as §5, §1, §2, §3, §4

[8] = tested on: Salmonella enterica; assay: Antimicrobial action, microbe count (Example 6); type: cell-based; conditions: conc. 0.5%, H2O (12% of ethanol), count t0 6.0 × 10^4
Procedure: as §5, §1, §2, §3, §4

[9] = tested on: Corynebacterium xerosis; assay: Antimicrobial action, microbe count (Example 6); type: cell-based; conditions: for Δlog: t24 h
Procedure: as §5, §1, §2, §3, §4

[10] = tested on: Serratia marcescens; assay: Antimicrobial action, microbe count (Example 6); type: cell-based; conditions: conc. 0.5%, H2O (12% of ethanol), count t0 6.8 × 10^4
Procedure: as §5, §1, §2, §3, §4

[11] = tested on: Staphylococcus epidermidis; assay: Antimicrobial action, microbe count (Example 6); type: cell-based; conditions: conc. 0.5%, H2O (12% of ethanol), count t0 3.4 × 10^4
Procedure: as §5, §1, §2, §3, §4

[12] = tested on: Aspergillus brasiliensis; assay: Antimicrobial action, microbe count (Example 6); type: cell-based; conditions: conc. 0.5%, H2O (12% of ethanol), count t0 2.0 × 10^4
Procedure: as §5, §1, §2, §3, §4

[13] = tested on: S. epidermidis (ATCC 12228); assay: Microbe count determination, bacteriostatic or bactericidal action (Example 5); type: cell-based, Staphylococcus epidermidis; conditions: 24 h at 35° C.
Procedure: as §1, §2, §3

[14] = tested on: P. acnes (ATCC 6919); assay: Growth inhibition by optical density, Bioscreen C (Example 4); type: cell-based, Propionibacterium acnes; conditions: 1.0% sample in water/ethanol (12% of ethanol) diluted 1 to 2 with bacteria suspension; 37° C.; negative control 1.0
Procedure: as §5
(§6) Result as optical density of the bacteria suspension after an exposure time of 20 hours: […]

[15] = tested on: S. epidermidis (ATCC 12228); assay: Growth inhibition by optical density, Bioscreen C (Example 3); type: cell-based, Staphylococcus epidermidis; conditions: 2nd experiment; 1.0% sample in water/ethanol (12% of ethanol) diluted 1 to 2 with bacteria suspension; 37° C.; negative control 0.65
Procedure: For sample preparation, the substances being investigated are each dissolved or homogeneously dispersed in an amount of 1.0% in a water/ethanol mixture (12% of ethanol) and subsequently diluted with bacteria suspension in the ratio 1 to 2. S. epidermidis (ATCC 12228) is pre-incubated under aerobic conditions for 24 h at 35° C. on CASO agar (Merck 1.05458). A bacteria suspension having an optical density (OD) of about 1.0 is subsequently prepared in CASO broth (Merck 1.05459, double-concentrated) and diluted again 1:10 in CASO broth. 150 μl of freshly prepared sample are added to 150 μl of bacteria suspension per well. The optical density is determined over the course of time at 37° C. using a Bioscreen C™ analyser compared with the negative control (=vehicle without test substance). Compared with the negative control, reduced optical densities confirm growth-inhibiting substance actions
as §6

[16] = H2O (12% of ethanol), count t0 3.4 × 10^4
[17] = conc. 0.125%, H2O, count t0 1.0 × 10^6
[18] = conc. 0.5%, H2O (12% of ethanol), count t0 3.5 × 10^4

## CCCCC(CC)COC(=O)C1CCCCC1O (centres unmarked) [Substance I-9, 2-hydroxycyclohexanecarboxylic acid 2-ethylhexyl ester]
[1]
  Density: 0.9752 g/mL
  Dynamic viscosity (kinematic viscosity × density): 32.2 mPas
[1]; Ubbelohde viscometer
  Kinematic viscosity: 33.0 mm^2/s
[2]; [16]
  Microbe count t24 h: 1.5 × 10^1
  Δlog: −3.36
[2]; H2O, count t0 3.8 × 10^5
  Microbe count t24 h: 8.0 × 10^6
  Δlog: +1.32
[3]
  Antioxidation-protection factor (ratio of the induction times with and without test substance): 1.12
[4]
  Microbe count t24 h: 9.0 × 10^3
[4]; t24 h
  Δlog: −0.88
[5]
  Microbe count t24 h: 8.0 × 10^2
[5]; t24 h
  Δlog: −1.40
[6]
  Microbe count t24 h: 3.8 × 10^2
[6]; t24 h
  Δlog: −2.08
[7]
  Microbe count t24 h: 1.4 × 10^2
[7]; t24 h
  Δlog: −2.48
[8]
  Microbe count t24 h: 1.8 × 10^4
[8]; t24 h
  Δlog: −0.52
[9]; [17]
  Microbe count t24 h: 5.0 × 10^6
  Δlog: +0.70
[9]; [18]
  Microbe count t24 h: 0
  Δlog: −4.54
[10]
  Microbe count t24 h: 9.0 × 10^3
[10]; t24 h
  Δlog: −0.88
[11]
  Microbe count t24 h: 6.0 × 10^3
[11]; t24 h
  Δlog: −0.75
[12]; count after 48 h
  Δlog: −1.40
[12]; count carried out after 48 h
  Microbe count t24 h: 8.0 × 10^2
[13]; 1.0% sample in 12% ethanol, 500 μl + 500 μl bacteria suspension, initial count 3.8 × 10^4, negative control 5.0 × 10^7
  Final microbe count: 2.0 × 10^3 CFU/ml
[13]; S. epidermidis
  Note: bacteriostatic or bactericidal action: bacteriostatic
[14]
  OD20h, optical density of the bacteria suspension after 20 hours: 0.50
[15]
  OD20h, optical density of the bacteria suspension after 20 hours: 0.30
